Target: glucosylceramide synthase (GCS) (Homo sapiens (Human), UniProt Q16739)
Experiment: UDP-Glo glucosylceramide synthase biochemical assay
Conditions: endogenous GCS in Golgi preparations from human A375 malignant melanoma skin cells; C6 ceramide and UDP-glucose substrates; 20 h incubation at room temperature; UDP detected by luminescence
Excerpt: A UDP-Glo™ glucosylceramide synthase biochemical assay was utilized to evaluate the effect of test compounds on the activity of endogenous levels of GCS enzyme contained within Golgi preparations isolated from human A375 malignant melanoma skin cells. The UDP-Glo™ glucosylceramide synthase assay uses UDP-Glucose as a nucleotide-glycosyl donor and ceramide as substrate acceptor molecules. In the reaction, glucosylceramide synthase (GCS) transfers glucose from UDP-Glucose to ceramide. Glucosylceramide and UDP are released as products.
Using Promega's UDP-Glo™ Glycosyltransferase assay kit (Promega Corporation, Madison, WI, USA (Promega)), GCS activity was indirectly measured by detecting the amount of UDP produced. An aliquot of GCS enzyme (1.5 μg crude golgi preparation, total protein) and titrated test compound were aliquoted to each well and incubated for 30 minutes at room temperature. […] An equivalent volume of substrate mixture was then added to each well. Following a 20 h incubation at room temperature to allow for GCS turnover of substrate, an equal volume of UDP detection reagent (Promega) was added to each well and incubated for an additional 75 minutes at room temperature to simultaneously convert the accumulated UDP product into ATP and generate light in a luciferase reaction. The generated light was detected using a luminometer. […] luminescence values (RLUs) were normalized to mean “min” and “max” effects, as determined on each plate. […] Values for % Emax and EC50 were determined by best-fitting the normalized data to a curve in Activity Base along a four-parameter logistic nonlinear regression (4PL) model (based on the Levenberg-Marquardt algorithm and defined by the equation below): […]
where: n is 4PMin (bottom of the curve); m is 4PMax (top of the curve); i is IP (inflection point of curve); and p is slope. See Levenberg, K., “A Method for the Solution of Certain Problems in Least Squares”, Quart. Appl. Math. 2, (1944), pp 164-168 and Marquardt, D., “An Algorithm for Least Squares Estimation on Nonlinear Parameters”, SIAM J. Appl. Math. 11, (1963) pp 431-441.

Chain of glucosylceramide synthase (GCS) (Q16739 whole entry): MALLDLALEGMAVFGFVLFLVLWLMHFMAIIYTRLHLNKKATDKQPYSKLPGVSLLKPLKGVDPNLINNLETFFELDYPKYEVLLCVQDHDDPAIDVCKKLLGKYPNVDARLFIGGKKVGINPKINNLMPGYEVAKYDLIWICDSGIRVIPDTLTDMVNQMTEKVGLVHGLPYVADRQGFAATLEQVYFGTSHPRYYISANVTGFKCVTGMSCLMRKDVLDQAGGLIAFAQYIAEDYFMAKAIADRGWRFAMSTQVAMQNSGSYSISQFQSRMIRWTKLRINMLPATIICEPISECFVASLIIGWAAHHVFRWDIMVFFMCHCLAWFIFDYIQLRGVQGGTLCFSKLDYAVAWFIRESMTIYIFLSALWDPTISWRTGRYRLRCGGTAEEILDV

SMILES	EC50 [nM]
O=C(c1nn(-c2ccc(OC(F)F)cc2)c2c1COCC2)N1CCN2CCC1CC2 [Compound 5, 1,4-diazabicyclo[3.2.2]nonan-4-yl-[1-[4-(difluoromethoxy)phenyl]-1,4,6,7-tetrahydropyrano[4,3-c]pyrazol-3-yl]methanone]	29
COc1ccc(-n2nc(C(=O)N3CCN4CCC3C(F)(F)C4)c3c2CCOC3)cc1 (single isomer, unassigned) [Compound 2, [(5˜{R or S})-6,6-difluoro-1,4-diazabicyclo[3.2.2]nonan-4-yl]-[1-(4-methoxyphenyl)-1,4,6,7-tetrahydropyrano[4,3-c]pyrazol-3-yl]methanone]	7700
COc1ccc(-n2nc(C(=O)N3CCN4CCC3CC4)c3c2CCC3)cc1F [Compound 18, 1,4-diazabicyclo[3.2.2]nonan-4-yl-[1-(3-fluoro-4-methoxyphenyl)-1,4,5,6-tetrahydrocyclopenta[c]pyrazol-3-yl]methanone]	0.9
COc1ccc(-n2nc(C(=O)N3CCN4CCC3C(F)(F)C4)c3c2CCC3)cc1C(F)(F)F (single isomer, unassigned) [Compound 22, [R or S]-(6,6-difluoro-1,4-diazabicyclo[3.2.2]nonan-4-yl)-[1-[4-methoxy-3-(trifluoromethyl)phenyl]-1,4,5,6-tetrahydrocyclopenta[c]pyrazol-3-yl]methanone]	16
COc1ccc(-n2nc(C(=O)N3CCNCC4(CC4)C3)c3c2CCOC3)cc1 [Compound 8, 5,8-diazaspiro[2.6]nonan-8-yl-[1-(4-methoxyphenyl)-1,4,6,7-tetrahydropyrano[4,3-c]pyrazol-3-yl]methanone]	1200
O=C(c1nn(-c2ccc(OC(F)F)c(Cl)c2)c2c1CCC2)N1CCN2CCC1CC2 [Compound 28, [1-[3-chloro-4-(difluoromethoxy)phenyl]-1,4,5,6-tetrahydrocyclopenta[c]pyrazol-3-yl]-(1,4-diazabicyclo[3.2.2]nonan-4-yl)methanone]	1.3
O=C(c1nn(-c2ccc(Cl)c(Cl)c2)c2c1CCC2)N1CCN2CCC1CC2 [Compound 24, 1,4-diazabicyclo[3.2.2]nonan-4-yl-[1-(3,4-dichlorophenyl)-1,4,5,6-tetrahydrocyclopenta[c]pyrazol-3-yl]methanone]	0.1
COc1ccc(-n2nc(C(=O)N3CCN4CCC3CC4)c3c2CCC3)cc1Cl [Compound 19, [1-(3-chloro-4-methoxyphenyl)-1,4,5,6-tetrahydrocyclopenta[c]pyrazol-3-yl]-(1,4-diazabicyclo[3.2.2]nonan-4-yl)methanone]	0.3
COc1ccc(-n2nc(C(=O)N3CCN4CCC3CC4)c3c2CCC3)cc1C [Compound 20, 1,4-diazabicyclo[3.2.2]nonan-4-yl-[1-(4-methoxy-3-methylphenyl)-1,4,5,6-tetrahydrocyclopenta[c]pyrazol-3-yl]methanone]	0.4
COc1ccc(-n2nc(C(=O)N3CCCN(C)CC3)c3c2CCOC3)cc1F [Compound 15, [1-(3-fluoro-4-methoxyphenyl)-1,4,6,7-tetrahydropyrano[4,3-c]pyrazol-3-yl]-(4-methyl-1,4-diazepan-1-yl)methanone]	730
COc1ccc(-n2nc(C(=O)N3CCN4CCC3CC4)c3c2CCOC3)cc1Cl [Compound 16, [1-(3-chloro-4-methoxyphenyl)-1,4,6,7-tetrahydropyrano[4,3-c]pyrazol-3-yl]-(1,4-diazabicyclo[3.2.2]nonan-4-yl)methanone]	2.2
COc1ccc(-n2nc(C(=O)N3CCC4CCC(C3)N4)c3c2CCOC3)cc1 (racemic) [Compound 12, Racemic-3,9-diazabicyclo[4.2.1]nonan-3-yl-[1-(4-methoxyphenyl)-1,4,6,7-tetrahydropyrano[4,3-c]pyrazol-3-yl]methanone]	840
COc1ccc(-n2nc(C(=O)N3CCNCC(F)C3)c3c2CCOC3)cc1 (racemic) [Compound 13, Racemic-(6-fluoro-1,4-diazepan-1-yl)-[1-(4-methoxyphenyl)-1,4,6,7-tetrahydropyrano[4,3-c]pyrazol-3-yl]methanone]	2500
COc1ccc(-n2nc(C(=O)N3CC[N@@]4CCC3C(F)(F)C4)c3c2CCC3)cc1C(F)(F)F (single isomer, unassigned) [Compound 23, [S or R]-(6,6-difluoro-1,4-diazabicyclo[3.2.2]nonan-4-yl)-[1-[4-methoxy-3-(trifluoromethyl)phenyl]-1,4,5,6-tetrahydrocyclopenta[c]pyrazol-3-yl]methanone]	66
COc1ccc(-n2nc(C(=O)N3CCCNCC3)c3c2CCOC3)cc1 [Compound 6, 1,4-diazepan-1-yl-[1-(4-methoxyphenyl)-1,4,6,7-tetrahydropyrano[4,3-c]pyrazol-3-yl]methanone]	360
COc1ccc(-n2nc(C(=O)N3CCN4CCC3CC4)c3c2CCC3)cc1 [Compound 17, 1,4-diazabicyclo[3.2.2]nonan-4-yl-[1-(4-methoxyphenyl)-1,4,5,6-tetrahydrocyclopenta[c]pyrazol-3-yl]methanone]	1.7
COc1ccc(-n2nc(C(=O)N3CCCNCC3C)c3c2CCOC3)cc1 (racemic) [Compound 7, Racemic-[1-(4-methoxyphenyl)-1,4,6,7-tetrahydropyrano[4,3-c]pyrazol-3-yl]-(2-methyl-1,4-diazepan-1-yl)methanone]	250
COc1ccc(-n2nc(C(=O)N3CCN4CCC3C(F)(F)C4)c3c2CCOC3)cc1 (single isomer, unassigned) [Compound 3, [(5˜{S or R})-6,6-difluoro-1,4-diazabicyclo[3.2.2]nonan-4-yl]-[1-(4-methoxyphenyl)-1,4,6,7-tetrahydropyrano[4,3-c]pyrazol-3-yl]methanone]	1400
O=C(c1nn(-c2cccc(Cl)c2)c2c1CCC2)N1CCN2CCC1CC2 [Compound 26, [1-(3-chlorophenyl)-1,4,5,6-tetrahydrocyclopenta[c]pyrazol-3-yl]-(1,4-diazabicyclo[3.2.2]nonan-4-yl)methanone]	1.5
COc1ccc(-n2nc(C(=O)N3CCN4CCC3C4)c3c2CCOC3)cc1 (racemic) [Compound 10, Racemic-1,4-diazabicyclo[3.2.1]octan-4-yl-[1-(4-methoxyphenyl)-1,4,6,7-tetrahydropyrano[4,3-c]pyrazol-3-yl]methanone]	180
COc1ccc(-n2nc(C(=O)N3CCCN(C)CC3)c3c2CCOC3)cc1C(F)(F)F [Compound 14, [1-[4-methoxy-3-(trifluoromethyl)phenyl]-1,4,6,7-tetrahydropyrano[4,3-c]pyrazol-3-yl]-(4-methyl-1,4-diazepan-1-yl)methanone]	320
COc1ccc(-n2nc(C(=O)N3CCN4CCC3CC4)c3c2CCC3)cc1C(F)(F)F [Compound 21, 1,4-diazabicyclo[3.2.2]nonan-4-yl-[1-[4-methoxy-3-(trifluoromethyl)phenyl]-1,4,5,6-tetrahydrocyclopenta[c]pyrazol-3-yl]methanone]	0.1
O=C(c1nn(-c2ccc(F)c(Cl)c2)c2c1CCC2)N1CCN2CCC1CC2 [Compound 25, [1-(3-chloro-4-fluorophenyl)-1,4,5,6-tetrahydrocyclopenta[c]pyrazol-3-yl]-(1,4-diazabicyclo[3.2.2]nonan-4-yl)methanone]	1.3
COc1ccc(-n2nc(C(=O)N3CCCN(C)CC3)c3c2CCOC3)cc1 [Compound 4, [1-(4-methoxyphenyl)-1,4,6,7-tetrahydropyrano[4,3-c]pyrazol-3-yl]-(4-methyl-1,4-diazepan-1-yl)methanone]	940
Cc1ccc(-n2nc(C(=O)N3CCN4CCC3CC4)c3c2CCC3)cc1Cl [Compound 27, [1-(3-chloro-4-methylphenyl)-1,4,5,6-tetrahydrocyclopenta[c]pyrazol-3-yl]-(1,4-diazabicyclo[3.2.2]nonan-4-yl)methanone]	0.3

From patent US20250171467A1, “FUSED PYRAZOLE AMIDE ANALOGS AS GLUCOSYLCERAMIDE SYNTHASE INHIBITORS” (Merck Sharp & Dohme LLC, priority 2022, published 2025)
